# Laboratory results published in patent publication US12029791B2, “Therapeutic conjugates” (Totus Medicines Inc., priority 2019, dated 2024).
# Test system: PI3-kinase
# Assay: NanoBRET screening of ARCS for covalent binding in transfected HEK293 cells
# Design: species or system Human
# Conditions: HEK293 cells transfected with NanoLuc-target fusion, overnight incubation, washout
# Experimental: Human embryonic kidney 293-H (HEK 293, Gibco 293-H, #11631017) cell lines are maintained in Dulbecco's Modified Eagle Medium, high glucose, pyruvate (DMEM, Gibco, #11995065) supplemented with 10% fetal bovine serum (FBS, Gibco, #10082147) and 1× penicillin-streptomycin (100× solution, Gibco, #15140148) at 37° C. and 5% CO2 in a water-saturated incubator. Cell are trypsinized using 0.05% or 0.25% Trypsin-EDTA solution (Trypsin-EDTA, phenol red, Gibco, #25200056 (0.25%) or #25300054). Opti-MEM media supplemented with 10% fetal bovine serum (Opti-MEM I reduced serum media, no phenol red, Gibco, #11058021) is used for culturing cells overnight for NanoBRET readout experiments.
# HEK293 cells are cultivated appropriately prior to assay. The medium from cell flask is removed via aspiration, washed 1× with PBS followed by aspiration, trypsinized, and cells are allowed to dissociate from the flask. Trypsin is neutralized using growth medium and cells are pelleted via centrifugation at 200×g for 5 minutes. The medium is aspirated and the cells are resuspended into a single cell suspension using Opti-MEM I supplemented with 10% FBS. The cell density is adjusted to 2×10^5/mL in Opti-MEM I supplemented with 10% FBS in a sterile, conical tube. The cells are transfected and aliquoted directly in a 96-well plate for the NanoBRET assay the next day, and therefore, the cells are cultured overnight in Opti-MEM. The cells are also transfected in bulk and dispensed into a 96-well plate to allow cells to adhere to the plate overnight, thereby enabling washout studies.
# The lipid:DNA complexes are prepared as follows:
# A 10 μg/mL solution of DNA is prepared in Opti-MEM without serum. This solution contains the following ratios of carrier DNA and DNA encoding NanoLuc fused to the biological target. Serial dilution steps may be warranted to accurately dilute the NanoLuc fusion DNA. Added, in order, the following reagents to a sterile polystyrene test tube: 1 mL of Opti-MEM without phenol red; 9.0 μg/mL of carrier DNA; 1.0 μg/mL of NanoLuc fusion DNA (for some targets, the amount is less). The reagents are mixed thoroughly.
# 30 μL of FuGENE HD is added into each mL of DNA mixture to form lipid:DNA complex. […] It is mixed by pipetting up and down 5-10 times and incubated at room temperature for 20 minutes to allow complexes to form. 1 part (e.g. 1 mL) of lipid:DNA complex is mixed with 20 parts (e.g. 20 mL) of HEK293 cells in suspension at 2×10^5/mL and mixed gently by pipetting up and down 5 times in a sterile, conical tube. Larger or smaller bulk transfections are scaled accordingly, using this ratio. 100 μL cells+lipid:DNA complex is dispensed into a sterile, tissue-culture treated 96-well plate (20,000 cells/well), and incubated at least 16 hours to allow expression. The cells are incubated in a 37° C.+5% CO2 incubator for >16 hrs. A serially diluted inhibitor or test compound is prepared at 100× final concentration in 100% DMSO. The serially diluted inhibitor stock is prepared in PCR plates. 1 μL per well of 100× serially diluted inhibitor/test compound is added to the cells in 96-well plates that have been transiently transfected overnight and mixed by tapping the plate by hand. The plate is incubated at 37° C.+5% CO2 incubator overnight. A 1× solution of substrate mix (500× stock) and appropriate concentration of tracer is prepared in Opti-Mem. The cells are washed by setting a plate washer to the 96 well plate 5× in PBS pH 7.4 by adding 200 μL PBS each time. The cells are incubated at 37° C. for 2 hours. 100 μL of the 1× Substrate-Tracer solution is added and the 96 well plate is gently tapped to mix. The plate on plate reader is read every hour for the next 6 hours. The binding assays of some ARCS are shown below. Compound 1-XXXII formed a covalent bond with PI3-kinase from about 5% to 20%. ARCS selected from the group consisting of Compounds 1-101, 1-102, 1-113, 1-114, 1-119, 1-120, 1-125 and 1-126 formed a covalent bond with PI3-kinase from about 80% to 100%. […]
row,Compound,Binding (Percent inhibition)
1,COC(=O)Nc1cc(C(F)(F)F)c(-c2nc(N3CCOCC3)c3cc(CN4CCN(C(=O)CCC(=O)C=C(C)C)CC4)cn3n2)cn1 [Compound 1-113],+++ (>80%)
2,COC(=O)Nc1cc(C(F)(F)F)c(-c2nc(N3CCOCC3)c3cc(CN4CCN(C(=O)CNC(=O)/C=C/CN(C)C)CC4)cn3n2)cn1 [Compound 1-120],+++ (>80%)
3,C=CC(=O)NCC(=O)N1CCN(Cc2cc3c(N4CCOCC4)nc(-c4cnc(NC(=O)OC)cc4C(F)(F)F)nn3c2)CC1 [Compound 1-102],+++ (>80%)
4,COC(=O)Nc1cc(C(F)(F)F)c(-c2nc(N3CCOCC3)c3cc(CN4CCNCC4)cn3n2)cn1 [Compound 1-XXXII],+ (<20%)
5,C=CC(=O)Nc1ccc(CCNCc2cc3c(N4CCOCC4)nc(-c4cnc(NC(=O)OC)cc4C(F)(F)F)nn3c2)cc1 [Compound 1-172],++ (50-80%)
6,CC#CC(=O)CCC(=O)N1CCN(Cc2cc3c(N4CCOCC4)nc(-c4cnc(NC(=O)OC)cc4C(F)(F)F)nn3c2)CC1 [Compound 1-125],+++ (>80%)
7,CC#CC(=O)NCC(=O)N1CCN(Cc2cc3c(N4CCOCC4)nc(-c4cnc(NC(=O)OC)cc4C(F)(F)F)nn3c2)CC1 [Compound 1-126],+++ (>80%)
8,COC(=O)Nc1cc(C(F)(F)F)c(-c2nc(N3CCOCC3)c3cc(CN4CCN(C(=O)CCC(=O)/C=C/CN(C)C)CC4)cn3n2)cn1 [Compound 1-119],+++ (>80%)
9,COC(=O)Nc1cc(C(F)(F)F)c(-c2nc(N3CCOCC3)c3cc(CN4CCN(C(=O)CNC(=O)C=C(C)C)CC4)cn3n2)cn1 [Compound 1-114],+++ (>80%)
10,C=CC(=O)CCC(=O)N1CCN(Cc2cc3c(N4CCOCC4)nc(-c4cnc(NC(=O)OC)cc4C(F)(F)F)nn3c2)CC1 [Compound 1-101],+++ (>80%)
11,C=CC(=O)Nc1ccc(C(=O)N2CCN(Cc3cc4c(N5CCOCC5)nc(-c5cnc(NC(=O)OC)cc5C(F)(F)F)nn4c3)CC2)cc1 [Compound 1-171],++ (50-80%)
